This passage reports inhibition results from ChEMBL document CHEMBL1137594, “Discovery of non-covalent dipeptidyl peptidase IV inhibitors which induce a conformational change in the active site” (Bioorg Med Chem Lett, 2007).

For this test, the target named is Dipeptidyl peptidase 4 (Rattus norvegicus, UniProt P14740). The settings on record: po, read-out: Reduction.
Sequence of Dipeptidyl peptidase 4 (P14740 whole entry): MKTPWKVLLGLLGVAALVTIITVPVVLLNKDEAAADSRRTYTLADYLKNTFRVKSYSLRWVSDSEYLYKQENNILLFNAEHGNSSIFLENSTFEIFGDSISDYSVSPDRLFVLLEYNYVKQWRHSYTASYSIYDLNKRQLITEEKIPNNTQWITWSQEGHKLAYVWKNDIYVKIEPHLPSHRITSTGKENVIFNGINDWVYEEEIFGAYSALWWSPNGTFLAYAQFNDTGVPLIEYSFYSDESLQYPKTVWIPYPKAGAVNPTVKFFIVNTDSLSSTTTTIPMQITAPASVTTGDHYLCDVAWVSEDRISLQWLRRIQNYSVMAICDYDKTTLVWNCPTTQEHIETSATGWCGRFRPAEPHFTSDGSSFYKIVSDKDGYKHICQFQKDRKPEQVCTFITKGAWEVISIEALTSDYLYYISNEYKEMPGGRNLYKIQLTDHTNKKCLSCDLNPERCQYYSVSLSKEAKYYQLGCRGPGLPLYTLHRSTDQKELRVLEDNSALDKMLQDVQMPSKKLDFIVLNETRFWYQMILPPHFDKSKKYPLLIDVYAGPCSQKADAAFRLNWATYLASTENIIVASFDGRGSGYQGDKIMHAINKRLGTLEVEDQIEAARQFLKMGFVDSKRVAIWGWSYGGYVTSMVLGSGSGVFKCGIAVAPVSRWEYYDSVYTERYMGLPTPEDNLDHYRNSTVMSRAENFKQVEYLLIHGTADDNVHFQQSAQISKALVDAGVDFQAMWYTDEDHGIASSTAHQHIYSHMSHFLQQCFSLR

Description: Ex vivo DDP-IV inhibition after a 30 mpk oral administration to healthy rats compared to vehicle in an oral glucose tolerance test (OGTT)

In the case of `NC(=O)c1ccc(OCC2(NCC(=O)c3ccsc3)CCCC2)cc1`, the inhibition at 30 mg/kg was 24%.
